Article PMC7432809, “Antimicrobial Activity of Small Synthetic Peptides Based on the Marine Peptide Turgencin A: Prediction of Antimicrobial Peptide Sequences in a Natural Peptide and Strategy for Optimization of Potency” (International Journal of Molecular Sciences, 2020)
Where a SMILES comes first, the peptide text is derived from it. Bridges are numbered along the chain shown (N, C = ends).

Tests used:
[1] = tested on: Bacillus megaterium; assay: microbe, parasite or virus in culture; format: cell-based; details: Bacillus megaterium; MH medium, 24 h at 35 °C, OD 595 nm <10% of growth control; triplicates
Method: (§1) The synthesized peptides were screened for antibacterial activity against five strains of G+ bacteria: B. subtilis (Bs, ATCC 23857), C. glutamicum (Cg, ATCC 13032), S. aureus (Sa, ATCC 9144), Micrococcus luteus (Ml), B. megaterium (Bm) (the last two were obtained from professor Olaf B. Styrvold, UiT The Arctic University of Norway).
(§2) Two strains of G- bacteria, P. aeruginosa (Pa, ATCC 27853) and E. coli (Ec, ATCC 25922), were also used. Cultures stored at -80 °C in glycerol were transferred to Müller–Hinton plates (MH, Difco Laboratories, Detroit, MI, USA) and incubated for 24 h at 35 °C. Colonies of each strain were transferred to 5 mL liquid MH medium and left shaking (600 rpm) at room temperature overnight. An aliquot of actively growing bacteria (20 µL) was inoculated in 5 mL MH medium and left shaking for 2 h at room temperature. In order to have a sensitive bioassay, the bacterial cultures were diluted with medium to only 2.5–3 × 10^4 bacteria/mL and an aliquot of 50 µL was added to each well in 96 microwell plates (Thermo Fisher Scientific, Roskilde, Denmark) preloaded with peptide solution (50 µL). The antibacterial assays were performed as previously described. The microtiter plates were incubated for 24 h at 35 °C with optical density (595 nm) recorded every hour using an Envision 2103 multilabel reader, controlled by a Wallac Envision manager (PerkinElmer, Waltham, MA, USA). The minimum inhibitory concentration (MIC) was defined as the sample concentration showing an optical density less than 10% of the negative (growth) control, consisting of bacteria and MQ-H2O. Oxytetracycline (concentrations ranging from 20–0.02 µg/mL, Sigma-Aldrich) and indolicidin (concentration ranging from 200–0.2 µg/mL, Sigma-Aldrich) served as a positive (inhibition) control. The synthetic peptides were tested for antibacterial activity in concentrations ranging from 250 to 0.5 µg/mL in two-fold dilutions. All tests were performed in triplicates.

[2] = tested on: Micrococcus luteus; assay: microbe, parasite or virus in culture; format: cell-based; details: Micrococcus luteus; MH medium, 24 h at 35 °C, OD 595 nm <10% of growth control; triplicates
Method: as §1, §2

[3] = tested on: Aureobasidium pullulans; assay: microbe, parasite or virus in culture; format: cell-based; details: potato dextrose broth with 2% glucose, room temperature 48 h, OD 600 nm, >90% inhibition; triplicate
Method: (§3) StAMP-1–11 were screened for antifungal activity against C. albicans (Ca, ATCC 10231), A. pullulans (Ap) and Rhodotorula sp. (Rh) (the last two were obtained from professor Arne Tronsmo, The Norwegian University of Life Sciences, Ås, Norway). The antifungal assay was performed as previously described with a few modifications. Briefly, fungal spores were dissolved in potato dextrose broth (Difco Laboratories) with 2% D(+)-glucose (Merck, Darmstadt, Germany) to a concentration of 4 × 10^5 spores/mL. The spores (50 µL) were inoculated on 96 microwell plates (Thermo Fisher Scientific) containing the synthetic peptides (50 µL) and controls (water or antibiotic). The peptides were diluted in MQ-H2O at final concentrations ranging from 250–3.9 µg/mL in two-fold serial dilutions. Triclosan (Sigma-Aldrich, Steinheim, Germany) was used as a positive (antifungal) control (32–0.25 µg/mL), and MQ-H2O as a negative (growth) control. Cultures were grown in room temperature for 24 h (Ca) and 48 h (Ap and Rh). Growth inhibition was determined by measuring OD values at 600 nm by a microplate reader (Synergy H1 Hybrid Multi-Mode Reader, BioTek, Winooski, VT, USA). […] All experiments were done in triplicate.

[4] = tested on: Candida albicans (ATCC 10231); assay: microbe, parasite or virus in culture; format: cell-based; details: potato dextrose broth with 2% glucose, room temperature 24 h, OD 600 nm, >90% inhibition; triplicate
Method: as §3

[5] = tested on: Rhodotorula sp.; assay: microbe, parasite or virus in culture; format: cell-based; details: potato dextrose broth with 2% glucose, room temperature 48 h, OD 600 nm, >90% inhibition; triplicate
Method: as §3

[6] = tested on: Bacillus subtilis (ATCC 23857); details: turgencin A data ref Hansen et al. [24]; cited from earlier work
From the text: Table 3 Antimicrobial activities of turgencin A and the synthesized StAMP-1–11 peptides. | column: Gram-Pos / Bs

[7] = tested on: Corynebacterium glutamicum (ATCC 13032); details: turgencin A data ref Hansen et al. [24]; cited from earlier work
From the text: Table 3 Antimicrobial activities of turgencin A and the synthesized StAMP-1–11 peptides. | column: Gram-Pos / Cg

[8] = tested on: Staphylococcus aureus (ATCC 9144); details: turgencin A data ref Hansen et al. [24]; cited from earlier work
From the text: Table 3 Antimicrobial activities of turgencin A and the synthesized StAMP-1–11 peptides. | column: Gram-Pos / Sa

[9] = tested on: Escherichia coli (ATCC 25922); details: turgencin A data ref Hansen et al. [24]; cited from earlier work
From the text: Table 3 Antimicrobial activities of turgencin A and the synthesized StAMP-1–11 peptides. | column: Gram-Neg / Ec

[10] = tested on: Pseudomonas aeruginosa (ATCC 27853); details: turgencin A data ref Hansen et al. [24]; cited from earlier work
From the text: Table 3 Antimicrobial activities of turgencin A and the synthesized StAMP-1–11 peptides. | column: Gram-Neg / Pa

With `CSCC[C@@H]1NC(=O)[C@H](CCCCN)NC(=O)[C@@H](NC(=O)[C@H](C)NC(=O)[C@H](C)NC(=O)[C@H](CCCCN)NC(=O)[C@@H](NC(=O)[C@H](CCCCN)NC(=O)[C@@H]2CCCN2C(=O)CN)[C@@H](C)O)CSSC[C@@H](C(=O)N[C@@H](CC(=O)O)C(=O)N[C@@H](C)C(=O)N[C@H](C(N)=O)C(C)C)NC(=O)CNC(=O)[C@H](CC(C)C)NC(=O)[C@H](CCC(=O)O)NC(=O)[C@@H]2CSSC[C@H](NC(=O)[C@H](C)NC1=O)C(=O)N[C@@H](CCCCN)C(=O)N[C@@H](CC(C)C)C(=O)N[C@@H](C)C(=O)N[C@@H]([C@@H](C)O)C(=O)N[C@H]1CSSC[C@H](NC(=O)[C@H](CCCCN)NC(=O)[C@H](Cc3c[nH]c4ccccc34)NC(=O)CNC(=O)CNC(=O)[C@@H]3CCCN3C(=O)[C@H](CCCCN)NC(=O)[C@H](CCCCN)NC(=O)CNC1=O)C(=O)N[C@@H](CCCCN)C(=O)N[C@@H](CC(C)C)C(=O)N2` [Turgencin A] (H-GPKTKAACKMACKLATCGKKPGGWKCKLCELGCDAV-NH2; disulfide 8-33, 12-29, 17-26; N-terminus assumed) the “Antimicrobial Activity (MIC) Bm” value [1] was 0.5 µg/mL, the “Antimicrobial Activity (MIC) Ml” value [2] was 8.0 µg/mL and the “Antimicrobial Activity (MIC) Ap” value [3] was 92.6 µg/mL. For the same compound, the “Antimicrobial Activity (MIC) Ca” value [4] was 46.3 µg/mL, the “Antimicrobial Activity (MIC) Rh” value [5] was 23.2 µg/mL and the “Antimicrobial Activity (MIC) Bs” value [6] was 1.5 µg/mL. The “Antimicrobial Activity (MIC) Cg” value [7] was 1.5 µg/mL, the “Antimicrobial Activity (MIC) Sa” value [8] was 23.3 µg/mL and the “Antimicrobial Activity (MIC) Ec” value [9] was 3.0 µg/mL. For the same compound, the “Antimicrobial Activity (MIC) Pa” value [10] was 5.9 µg/mL.
